The target of series [1] is T1, BACE1 (Homo sapiens, UniProt P56817).
T1 construct: purchased PanVera Co. (Invitrogen, USA)
The series is described as follows: In vitro BACE1 FRET enzyme assay. Format: biochemical. Particulars: for inhibition at 10 µM: read-out: Inhibition Rate at 10 μM (%); for selectivity on BACE1 over BACE2 and renin: from IC50 values of Table 6. As to the method: The BACE1 FRET assay kit was purchased from the PanVera Co. (Invitrogen, USA). The assay was carried out according to the supplied manual with modifications. […] The fluorescence intensity was measured with a TECAN infinite 200 microplate reader for 60 min at 25 °C in the dark. […] The percent inhibition (%) was obtained by the following equation: Inhibition % = (1 −SS/SC) × 100%, where SC is the slope of fluorescence change of the control (enzyme, buffer, and substrate) during 60 min, and SS is the slope of fluorescence change of the tested samples (enzyme, sample solution, and substrate) during 60 min of measurement. IC50 values were calculated from the nonlinear curve fitting of percentage inhibition against inhibitor concentration using Prism 3.0 software (GraphPad Software, San Diego, CA, USA).

A further series is described as follows: MTT cytotoxicity assay. Format: cell-based. Particulars: human, 24 h exposure. As to the method: It is crucial for the BACE1 inhibitors to exert their activities at sub-toxic concentration, and thus their cytotoxicity was assessed in HEK293 cells by 3-[4,5-dimethylthiazol-2-yl]-2,5-diphenyl-tetrazolium bromide (MTT) assays (Table 5). […] Unfortunately, there was no obvious relationship between the structures and their cytotoxicity.
The cytotoxicity was examined by using 3-[4,5-dimethylthiazol-2-yl]-2,5-diphenyl-tetrazolium bromide (MTT) assay. HEK293T cells were seeded with complete DMEM into 96-well plates ([…], 100 µL/well), incubated at 37 °C in a humidified atmosphere with 5% CO2 for 24 h. All the compounds were diluted with the phenol red-free DMEM at a specific concentration. After 24 h of exposure to different concentrations of compound, the supernatant was removed and then 20% (v/v) MTT (5 mg/mL) diluted with fresh culture medium was added into each well and incubated for 4 h. Cells were lysed with 100 μL dimethyl sulfoxide (DMSO) and shaken for 10 min at room temperature. The absorbance in each well was detected at a wavelength of 490 nm using a Universal Microplate Reader (ELX 800 lv, BIO-TEK Instruments, Inc., Winooski, VT, USA).

Series [2] relates to Aβ-38, Aβ-40, Aβ-42 in HEK293 cells stably overexpressing human APP695. The experiment in a line: Inhibition of Aβ production in APP overexpressed cells (V-Plex Aβ Peptide Panel immunoassay). The class given is cell-based. The settings on record: for Aβ levels: higher concentrations (10, 25, and 50 µM), 23 h; for Aβ levels / Aβ-42 levels: DMSO = 100%. On the procedure:
To assess the cellular BACE1 inhibitory activity of the conjugates, 7a–d, 7i, and 7k were incubated in APP overexpressing HEK293 cells and their inhibition on the three main Aβ species Aβ-38, Aβ-40, and Aβ-42—the main amyloidogenic peptides produced by BACE1 cleavage of APP peptide—was measured by an ELISA-like immunoassay method. Aβ levels were normalized to the protein concentration in the lysate in order to rule out differences in total cell number per well of the culture plate. Additionally, the normalized Aβ level was set to 100% for the DMSO-treated control.
HEK293 cells stably overexpressing human APP695 were plated in a poly-D-lysine-coated 96-well plates and grown to a density of 80–90%. Compounds were dissolved in DMSO to make a 10 mM stock solution and diluted in DMEM complete medium to the final concentrations: 0.1, 1.0, 5.0, 10.0, 25.0, and 50.0 µM. DMSO was used at a 1:200 dilution as a negative control and a commercially available BACE1 inhibitor (C3, also known as BACE inhibitor IV) as a positive control. After 23 h of incubation, the cell supernatants were directly used for measurement in the V-Plex Aβ Peptide Panel 1 (6E10) Kit from Meso Scale Diagnostics (Rockville, MD, USA) for measuring Aβ38, −40, and −42 simultaneously. Cells were washed with PBS and lysed in Triton X100 lysis buffer for subsequent protein concentration (BCA) measurement.

The target of series [3] is T1, BACE1. More on the design: method as in PMID 31557620. The settings on record: previous work ref 13; cited from earlier work.
Series [4] concerns the target T1, BACE1. The series is described as follows: Kinetic analysis of BACE1 inhibition (Dixon plot). The class given is biochemical. The settings on record: for Ki: BACE1 substrate 250, 500, 750 nM. As to the method:
The Dixon plot was used to determine the kinetics of 4l, 7c, and 7k inhibiting BACE1.
The Dixon plot is a graphical method (plot of 1/enzyme velocity (1/V) against inhibitor concentration (I)) for determination of the type of enzyme inhibition, which was used to determine the dissociation or inhibition constant (Ki) for the enzyme inhibitor complex. The Dixon plots for BACE1 inhibition were obtained in the presence of various concentrations of BACE1 substrate (250, 500, 750 nM) and the concentrations of 4l, 7c, and 7k as follows: 0.1 µM, 0.5 µM, 1.0 µM. In this way, the inhibition constants (Ki) of 4e were determined by interpretation of Dixon plots, where the value of the x-axis represents −Ki when 1/V = 0. […]
The Dixon plot is a graphical method [plot of 1/enzyme velocity (1/V) against inhibitor
concentration (I)] for determination of the type of enzyme inhibition and was used to determine the
dissociation or inhibition constant (Ki) for the enzyme inhibitor complex (Cornish-Bowden, 1974).
The Dixon plots for BACE1 inhibition were obtained in the presence of various concentrations of […]
BACE1 substrate (250, 500, 750 nM) and the concentrations of 4l, 7c and 7k as follows: 0.1 µM, 0.5 µM,
1.0µM. In this way, the inhibition constants (Ki) of 4e were determined by in terpretation of Dixon
plots, w here t he value of the X -axis represents -Ki when 1/V=0.
Figure 3. Kinetic analysis of 4l.
Figure 4. Kinetic anal ysis of 7k. […]
The BACE1 FRET assay kit was purchased from the PanVera Co. (Invitroge, USA). The assay
was carried out according to the supplied manual with modifications. Briefly, assays were
performed in triplicate in 384-well black plates with a mixture of 5 μL of BACE1 (1.0 U/ml), 5 μL of
the substrate (750 nM, Rh-[…]- Quencherin 50 mM, ammonium bicarbonate), and 5 μL of
compound dissolved in 10% DMSO. The fluorescence intensity was measured with a TECAN
infinite 200 microplate reader for 60 min at 25 °C in the dark. The mixture was irradiated at 544 nm
and the emission intensity recorded at 590 nm. The percent inhibition (%) was obtained by the
following equation: Inhibition % = (1-SS/SC) × 100%, where SC is the slope of fluorescence change of
the control (enzyme, buffer, and substrate) during 60 min, and SS is the slope of fluorescence change
of the tested samples (enzyme, sample solution, and substrate) during 60 min of measurement. […]

A further series concerns the target T2, BACE2 (Homo sapiens, UniProt Q9Y5Z0).
T2 sequence (Q9Y5Z0 63-518): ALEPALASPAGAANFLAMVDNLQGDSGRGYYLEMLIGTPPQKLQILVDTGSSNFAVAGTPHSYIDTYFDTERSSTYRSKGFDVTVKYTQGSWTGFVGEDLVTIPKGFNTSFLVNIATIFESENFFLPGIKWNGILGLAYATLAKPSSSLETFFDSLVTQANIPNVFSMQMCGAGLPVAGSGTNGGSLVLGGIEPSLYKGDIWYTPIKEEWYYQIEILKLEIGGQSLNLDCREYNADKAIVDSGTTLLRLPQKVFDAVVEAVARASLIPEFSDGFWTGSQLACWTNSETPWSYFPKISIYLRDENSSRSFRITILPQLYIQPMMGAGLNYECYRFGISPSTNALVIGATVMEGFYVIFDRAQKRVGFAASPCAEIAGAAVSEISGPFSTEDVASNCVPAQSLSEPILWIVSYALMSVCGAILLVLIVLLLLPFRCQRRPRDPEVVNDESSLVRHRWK
The experiment in a line: Enzyme selectivity: BACE2 inhibition. Format: biochemical. The source says: (§1) As BACE1 is a member of aspartyl protease family, its selective inhibition over other closely related proteases is required to avoid possible severe side effects.

A further series deals with T3, Renin (Homo sapiens, UniProt P00797).
T3 sequence (P00797 67-406): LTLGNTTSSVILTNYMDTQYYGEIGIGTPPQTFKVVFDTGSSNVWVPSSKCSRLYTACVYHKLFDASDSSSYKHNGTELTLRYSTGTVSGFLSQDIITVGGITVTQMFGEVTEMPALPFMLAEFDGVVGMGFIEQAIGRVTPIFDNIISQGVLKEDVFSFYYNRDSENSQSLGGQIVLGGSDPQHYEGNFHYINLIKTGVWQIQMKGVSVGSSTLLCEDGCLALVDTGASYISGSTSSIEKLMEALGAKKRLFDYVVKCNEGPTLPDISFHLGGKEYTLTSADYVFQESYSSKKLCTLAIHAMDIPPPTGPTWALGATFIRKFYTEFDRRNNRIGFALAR
The experiment in a line: Enzyme selectivity: renin inhibition. The class given is biochemical.
Source text: as §1

Where [5] appears, read: BACE1 FRET assay, 10 μM compound.
Setting [6] is: HEK293 cells (method text: HEK293T).

Several values for one entry are separate records, joined by “and”; a condition that tells them apart may be missing. Equal entries are not always repeated. Where two headings read alike, the source gives them in different places.

These results are taken from paper PMC6982702, “Extensive Structure Modification on Luteolin-Cinnamic Acid Conjugates Leading to BACE1 Inhibitors with Optimal Pharmacological Properties” (Molecules, 2019).

T1 sequence (P56817 46-501): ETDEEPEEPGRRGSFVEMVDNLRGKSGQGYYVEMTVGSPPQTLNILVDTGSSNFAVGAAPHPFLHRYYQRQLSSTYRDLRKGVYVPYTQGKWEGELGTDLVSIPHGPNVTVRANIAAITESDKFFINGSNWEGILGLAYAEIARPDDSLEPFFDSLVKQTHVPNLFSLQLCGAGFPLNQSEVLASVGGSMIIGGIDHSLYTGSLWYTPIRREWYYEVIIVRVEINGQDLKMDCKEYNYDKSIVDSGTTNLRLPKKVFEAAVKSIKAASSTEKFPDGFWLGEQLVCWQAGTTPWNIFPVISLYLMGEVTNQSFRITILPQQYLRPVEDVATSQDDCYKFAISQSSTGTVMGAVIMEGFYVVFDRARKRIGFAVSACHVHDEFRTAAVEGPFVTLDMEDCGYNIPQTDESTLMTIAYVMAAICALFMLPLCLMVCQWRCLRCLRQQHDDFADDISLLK

Regarding `O=c1cc(-c2ccc(O)c(O)c2)oc2cc(O)cc(O)c12` [Compound 1, luteolin], at BACE1 [1] (BACE1 FRET assay, 10 μM compound, 10 µM), the “Inhibition Rate at 10 μM (%)” value is reported as 64.8 ± 6.0%. The inhibition at 10 µM at BACE1 [1] (setting [5]) came to 68.6 ± 8.9%. For the same compound, the IC50 at 24 h in “MTT cytotoxicity assay” (setting [6]) stood at 39.8 µM. In addition, the Aβ levels entry in series [2] was “dose-dependently reduced Aβ levels”.

Take `O=C(/C=C/c1ccc(O)cc1)OCCOc1cc(O)c2c(=O)cc(-c3ccc(O)c(O)c3)oc2c1` [Compound 3]: on BACE1 [1] (BACE1 FRET assay), the half-inhibitory concentration (IC50) is 2.19 µM and 1.87 µM. Further, the inhibition at 10 µM on BACE1 [1] (setting [5]) was 64.8 ± 6%. Also, the IC50 at 24 h in “MTT cytotoxicity assay” (setting [6]) came out at 62.4 µM. Further, on BACE1 [3], the “mode of BACE1 inhibition” value is reported as “non-competitive inhibitor”.

`O=C(/C=C/c1ccc(O)cc1)OCCOc1cccc2c(=O)cc(-c3ccc(O)c(O)c3)oc12` [Compound 4l]: the IC50 against BACE1 [1] (BACE1 FRET assay) stood at 2.47 ± 0.17 µM. On BACE1 [1] (setting [5]), the inhibition at 10 µM was 58.4 ± 10.2%. In addition, on BACE1 [4], the “mode of BACE1 inhibition” value was “mix-competitive mode” and the affinity corresponds to a Ki of 0.8 µM.

For the compound `O=C(/C=C/c1cccc(O)c1)OCCOc1cc(O)c2c(=O)cc(-c3ccc(O)c(O)c3)oc2c1` [Compound 7c], the IC50 on BACE1 [1] (BACE1 FRET assay) was 1.44 ± 0.18 µM; at BACE2, above 100 µM; against Renin it was above 100 µM. In addition, the inhibition at 10 µM on BACE1 [1] (setting [5]) came to 66.7 ± 8.3%. Further, on BACE1 [1], the “selectivity on BACE1 over BACE2 and renin” value is given as 2–3 orders of magnitude. Also, the midpoint of inhibition in the series “MTT cytotoxicity assay” (HEK293 cells (method text: HEK293T cells)), the IC50 at 24 h, lay at 90 µM. The Aβ-42 level result in series [2] (25 µM) was “obvious inhibition”. The “mode of BACE1 inhibition” value at BACE1 [4] is “non-competitive inhibitor”. The same compound had a Ki on BACE1 [4] of 1.2 µM.

Consider `COc1ccc(/C=C/C(=O)OCCOc2cc(O)c3c(=O)cc(-c4ccc(O)c(O)c4)oc3c2)cc1` [Compound 7i, (E)-2-((2-(3,4-dihydroxyphenyl)-5-hydroxy-4-oxo-4H-chromen-7-yl)oxy)ethyl 3-(4-methoxyphenyl)acrylate], for which, at BACE1 [1] (setting [5]), the inhibition at 10 µM is 28.9 ± 4.4%. Further, the IC50 at 24 h in “MTT cytotoxicity assay” (setting [6]) was found to be 3.94 µM. Besides, in series [2], the Aβ-42 levels result was “increased Aβ-42 levels” and the Aβ levels entry is reported as “did not reduce Aβ levels”.

Take `O=C(/C=C/c1cccnc1)OCCOc1cc(O)c2c(=O)cc(-c3ccc(O)c(O)c3)oc2c1` [Compound 7k, (E)-2-((2-(3,4-dihydroxyphenyl)-5-hydroxy-4-oxo-4H-chromen-7-yl)oxy)ethyl 3-(pyridin-3-yl)acrylate]: the IC50 against BACE1 [1] (BACE1 FRET assay) is 0.15 µM; against BACE2 it was above 100 µM; against Renin, above 100 µM. Besides, the inhibition at 10 µM at BACE1 [1] (setting [5]) came out at 54.4 ± 3.5%. Besides, the “enhancement of BACE1 inhibitory activity compared with the flavone segment 1 or conjugate 3” value at BACE1 [1] (from IC50) was around 10 fold. Also, on BACE1 [1], the “selectivity on BACE1 over BACE2 and renin” value is 2–3 orders of magnitude. Also, the IC50 at 24 h in the series “MTT cytotoxicity assay” (setting [6]) is above 100 µM. For the same compound, the Aβ-42 levels result in series [2] was “increased Aβ-42 levels”. In series [2], the Aβ levels entry is on record as “did not reduce Aβ levels”. Moreover, the “mode of BACE1 inhibition” value on BACE1 [4] was “mix-competitive mode”. On BACE1 [4], this compound displayed a Ki of 0.32 µM.

`O=C(/C=C/c1ccc(O)cc1)NCCOc1cc(O)c2c(=O)cc(-c3ccc(O)c(O)c3)oc2c1` [Compound 8]: the figures for the IC50 on BACE1 [1] (BACE1 FRET assay), against BACE2 and on Renin were 4.15 ± 1.97 µM, above 100 µM and 25.4 µM, respectively. On BACE1 [1] (setting [5]), the inhibition at 10 µM came to 59.5 ± 4.4%. This compound also registered an IC50 at 24 h in the series “MTT cytotoxicity assay” (setting [6]) above 100 µM.
